Consider 6 compounds from publication PMC9375819 (EJNMMI Research, 2022).

Some results are limits rather than exact numbers.

In data set [1] the target is T1, ATM (Homo sapiens, UniProt Q13315).
T1 construct: endogenous in cells; host or cells: H1299 shGFP and shATM cells
Kind of data set: Western blot of pATM, pKAP1 and pCHK2 in irradiated H1299 shGFP cells. The format is cell-based. Particulars: irradiated (4 Gy) H1299 shGFP knockdown cells, inhibitor 1 h before irradiation, relative to DMSO control. How it is done:
(§1) H1299 non-small cell lung cancer cells, either wild type or stably transfected with short hairpin RNA for ATM (shATM) or GFP (shGFP, as a control) expression knockdown, were kindly gifted by Dr Anderson Ryan at the University of Oxford. All cells were cultured at 37 °C and 5% CO2 in Dulbecco’s modified Eagle medium (DMEM) supplemented with 10% foetal bovine serum (FBS) (Gibco, USA), 2 mM L-glutamine, 100 units/mL penicillin, and 100 µg/mL streptomycin (PSG) (Sigma-Aldrich); knockdown cell lines were additionally supplemented with 0.5 μg/mL puromycin dihydrochloride (Merck Life Science, UK). Cells were originally purchased from ATCC and were authenticated by the provider and by STR profiling. Cells were tested regularly for the absence of mycoplasma contamination and were cultured for a maximum of 20 passages after resuscitation from liquid nitrogen storage.

Data set [2] has as its target T1, ATM. Kind of data set: Blocking of [18F]1 cell-associated activity by non-radioactive ATM inhibitors. Particulars: for effect on [18F]1 cell-associated activity at high molar excess: 1000 nM inhibitor, compared to DMSO control; for effect on [18F]1 cell-associated activity at lower inhibitor concentrations: 0.1–10 nM inhibitor. The data set is classed as cell-based. How it is done: as §1

Details of data set [3]: method as in PMID 29938225, PMID 33123736. Particulars: phase I clinical trial; cited from earlier work.
The subject of data set [4] is H1299 shATM and shGFP cells. The experiment in a line: Cell uptake of [18F]1. The format is cell-based, human. Particulars: irradiated 4 Gy or sham-irradiated, 37 °C. On the procedure:
as §1
To assess cellular uptake of [^18F]1, aliquots of H1299 shATM or shGFP cells were plated with 1 × 10^5 cells per well in 24-well plates in 500 μL complete growth medium and incubated overnight to allow cells to adhere. Cell culture medium was removed, cells washed with PBS and media replaced with DMEM (no additives). […] The amount of ^18F-activity associated with each fraction was determined using a Wizard2 Automatic Gamma Counter (PerkinElmer).

The subject of data set [5] is H1299 shATM and shGFP cells. The experiment in a line: Cell retention of [18F]1. The format is cell-based, human. Particulars: after 1 h incubation with tracer, over 2 h. How it is done: as §1
Retention assays followed the same procedure with a 1-h incubation of cell with [^18F]1, but after culture medium was aspirated and cells washed with PBS (2 × 500 μL), it was replaced (500 μL DMEM) and cells incubated at 37 °C and 5% CO2 for the desired time. The amount of ^18F-activity retained in cells was then determined as above.

A short description of data set [6]: PET/CT imaging and ex vivo biodistribution in wild type and ATM-null mice. Also on record: species or system C57BL/6 mice. Particulars: 1 h after intravenous administration. How it is done: (§2) All animal procedures were performed in accordance with the UK Animals (Scientific Procedures) Act 1986 and with local ethical committee approval. Mice were bred from parent C57BL/6 J mice heterozygous for a targeted mutation in the ATM^tm1Awbl allele to produce ATM-null (ATM^−/−) mice (Jackson laboratory). Wild-type (ATM^+/+) mice from this breeding program were used as controls. In a separate study, tumour xenografts were created in BALB/c nu/nu mice (8 weeks old) via subcutaneous injection of H1299 wild type, shATM knockdown, or shGFP knockdown cells in a 1:1 PBS/Matrigel® formulation on both sides of the hind flank. Total tumour volumes were allowed to reach an average of 600 mm^3 (range 330–930 mm^3) before imaging and/or biodistribution studies (approx. 6–10 weeks after inoculation).
Animals were anaesthetised by 4% isoflurane gas (0.5 L/min O2) and maintained at approx. 2% and 37 °C throughout the imaging session. C57BL/6 ATM^+/+ and ATM^−/− mice were administered [^18F]1 (83 ng; 0.5–4.6 MBq, molar activity range of 3.2–24.2 GBq/μmol with a standard deviation of 6.5 GBq/μmol) via intravenous bolus injection in the lateral tail vein. […] PET images were each registered to CT, attenuation corrected, calibrated by imaging a phantom containing a fluorine-18 standard solution, and analysed using PMod software package (version 3.807, PMOD Technologies).

The nature of data set [7]: Ex vivo biodistribution, uptake in H1299 tumour xenografts. Also on record: species or system BALB/c nu/nu mice. How it is done:
as §2
Animals were anaesthetised by 4% isoflurane gas (0.5 L/min O2) and maintained at approx. 2% and 37 °C throughout the imaging session. C57BL/6 ATM^+/+ and ATM^−/− mice were administered [^18F]1 (83 ng; 0.5–4.6 MBq, molar activity range of 3.2–24.2 GBq/μmol with a standard deviation of 6.5 GBq/μmol) via intravenous bolus injection in the lateral tail vein. Xenograft-bearing BALB/c nu/nu mice were administered [^18F]1 (0.5 μg; 0.7–9.6 MBq, molar activity range of 0.62–9.8 GBq/μmol with a standard deviation of 3.0 GBq/μmol) via intravenous bolus injection to the lateral tail vein. PET/CT scanning was completed using a VECTor4CT scanner (MILabs, Utrecht, the Netherlands) for 1 h and was immediately followed by culling, dissection, and gamma counting of selected organs. Tumour tissue was immediately flash frozen in liquid nitrogen and mounted in OCT before producing 10 μm thick sections for autoradiography and H&E staining. Alternatively, frozen tumour tissue was macerated and lysed in RIPA buffer for western blot analysis (full details available in the supporting information). Reconstruction of both CT and PET images was performed with the MILabs reconstruction analysis using a γ-ray energy window of 467–571 keV (background weight 2.5%), 0.8 mm^3 voxel size, 8 subsets, and 5 iterations using the manufacturer’s SROSEM reconstruction type. PET images were each registered to CT, attenuation corrected, calibrated by imaging a phantom containing a fluorine-18 standard solution, and analysed using PMod software package (version 3.807, PMOD Technologies).

Data set [8] concerns the target T2, murine ATM (Mus musculus, UniProt Q62388).
T2 construct: endogenous in cells; host or cells: CT26 murine colorectal cancer cells
The experiment in a line: Western blot of ATM inhibition in CT26 murine colorectal cancer cells. The format is cell-based. How it is done: Western blot analysis was performed to compare the total ATM expression between cell models, in addition to expression of phospho-ATM^S1981 (pATM), phospho-KAP1^S824 (pKAP1), and phospho-CHK2^T68 (pCHK2) expression to assess the effect of irradiation and ATM inhibition on ATM catalytic activity. Cells were irradiated (4 Gy; 0.75 Gy/min) or sham-irradiated and incubated at 37 °C for 1 h before harvesting cells for lysis and blotting (full details in supporting information). Where required, inhibitors were added to cells at the stated concentration from DMSO stock solutions (reaching no greater than 10% DMSO final concentration) with incubation for 1 h prior to irradiation/sham-irradiation. The following antibodies and dilutions were used in this work: phospho-ATM S1981 (ab81292, 1:5000, Abcam); phospho-KAP1 S824 (ab133440, 1:10,000, Abcam); phospho-CHK2 T68 (#2661, 1:1000, Cell Signalling Technologies); Total ATM (ab32420, clone [Y170], 1:500, Abcam); Total KAP1 (ab10483, 1:1000, Abcam); Total CHK2 (05-649, 1:1000, Merck Millipore); HRP-conjugated Tubulin (ab197740, clone [YL1/2], 1:4000, Abcam); HRP-conjugated β-Actin (clone 13E5, 1:1000, Cell Signalling Technologies), HRP-conjugated anti-rabbit secondary (HAF008, 1:1000, R&D Systems); and HRP-conjugated anti-mouse secondary (HAF007, 1:1000, R&D Systems). […]

The subject of data set [9] is ATM. Also on record: method as in earlier work. Particulars: cited from earlier work.
Data set [10] deals with ATR. Also on record: method as in earlier work. Particulars: read-out: Cellular IC50 by catalytic inhibition: ATR; cited from earlier work.
For data set [11], the system named is PI3K. Also on record: method as in earlier work. Particulars: read-out: Cellular IC50 by catalytic inhibition: PI3K; cited from earlier work.
The test system of data set [12] is mTOR. Set-up: method as in earlier work. Particulars: read-out: Cellular IC50 by catalytic inhibition: mTOR; cited from earlier work.
[13] abbreviates: BALB/c nu/nu mice, intravenous, 1 h.

T1 sequence (Q13315 whole entry): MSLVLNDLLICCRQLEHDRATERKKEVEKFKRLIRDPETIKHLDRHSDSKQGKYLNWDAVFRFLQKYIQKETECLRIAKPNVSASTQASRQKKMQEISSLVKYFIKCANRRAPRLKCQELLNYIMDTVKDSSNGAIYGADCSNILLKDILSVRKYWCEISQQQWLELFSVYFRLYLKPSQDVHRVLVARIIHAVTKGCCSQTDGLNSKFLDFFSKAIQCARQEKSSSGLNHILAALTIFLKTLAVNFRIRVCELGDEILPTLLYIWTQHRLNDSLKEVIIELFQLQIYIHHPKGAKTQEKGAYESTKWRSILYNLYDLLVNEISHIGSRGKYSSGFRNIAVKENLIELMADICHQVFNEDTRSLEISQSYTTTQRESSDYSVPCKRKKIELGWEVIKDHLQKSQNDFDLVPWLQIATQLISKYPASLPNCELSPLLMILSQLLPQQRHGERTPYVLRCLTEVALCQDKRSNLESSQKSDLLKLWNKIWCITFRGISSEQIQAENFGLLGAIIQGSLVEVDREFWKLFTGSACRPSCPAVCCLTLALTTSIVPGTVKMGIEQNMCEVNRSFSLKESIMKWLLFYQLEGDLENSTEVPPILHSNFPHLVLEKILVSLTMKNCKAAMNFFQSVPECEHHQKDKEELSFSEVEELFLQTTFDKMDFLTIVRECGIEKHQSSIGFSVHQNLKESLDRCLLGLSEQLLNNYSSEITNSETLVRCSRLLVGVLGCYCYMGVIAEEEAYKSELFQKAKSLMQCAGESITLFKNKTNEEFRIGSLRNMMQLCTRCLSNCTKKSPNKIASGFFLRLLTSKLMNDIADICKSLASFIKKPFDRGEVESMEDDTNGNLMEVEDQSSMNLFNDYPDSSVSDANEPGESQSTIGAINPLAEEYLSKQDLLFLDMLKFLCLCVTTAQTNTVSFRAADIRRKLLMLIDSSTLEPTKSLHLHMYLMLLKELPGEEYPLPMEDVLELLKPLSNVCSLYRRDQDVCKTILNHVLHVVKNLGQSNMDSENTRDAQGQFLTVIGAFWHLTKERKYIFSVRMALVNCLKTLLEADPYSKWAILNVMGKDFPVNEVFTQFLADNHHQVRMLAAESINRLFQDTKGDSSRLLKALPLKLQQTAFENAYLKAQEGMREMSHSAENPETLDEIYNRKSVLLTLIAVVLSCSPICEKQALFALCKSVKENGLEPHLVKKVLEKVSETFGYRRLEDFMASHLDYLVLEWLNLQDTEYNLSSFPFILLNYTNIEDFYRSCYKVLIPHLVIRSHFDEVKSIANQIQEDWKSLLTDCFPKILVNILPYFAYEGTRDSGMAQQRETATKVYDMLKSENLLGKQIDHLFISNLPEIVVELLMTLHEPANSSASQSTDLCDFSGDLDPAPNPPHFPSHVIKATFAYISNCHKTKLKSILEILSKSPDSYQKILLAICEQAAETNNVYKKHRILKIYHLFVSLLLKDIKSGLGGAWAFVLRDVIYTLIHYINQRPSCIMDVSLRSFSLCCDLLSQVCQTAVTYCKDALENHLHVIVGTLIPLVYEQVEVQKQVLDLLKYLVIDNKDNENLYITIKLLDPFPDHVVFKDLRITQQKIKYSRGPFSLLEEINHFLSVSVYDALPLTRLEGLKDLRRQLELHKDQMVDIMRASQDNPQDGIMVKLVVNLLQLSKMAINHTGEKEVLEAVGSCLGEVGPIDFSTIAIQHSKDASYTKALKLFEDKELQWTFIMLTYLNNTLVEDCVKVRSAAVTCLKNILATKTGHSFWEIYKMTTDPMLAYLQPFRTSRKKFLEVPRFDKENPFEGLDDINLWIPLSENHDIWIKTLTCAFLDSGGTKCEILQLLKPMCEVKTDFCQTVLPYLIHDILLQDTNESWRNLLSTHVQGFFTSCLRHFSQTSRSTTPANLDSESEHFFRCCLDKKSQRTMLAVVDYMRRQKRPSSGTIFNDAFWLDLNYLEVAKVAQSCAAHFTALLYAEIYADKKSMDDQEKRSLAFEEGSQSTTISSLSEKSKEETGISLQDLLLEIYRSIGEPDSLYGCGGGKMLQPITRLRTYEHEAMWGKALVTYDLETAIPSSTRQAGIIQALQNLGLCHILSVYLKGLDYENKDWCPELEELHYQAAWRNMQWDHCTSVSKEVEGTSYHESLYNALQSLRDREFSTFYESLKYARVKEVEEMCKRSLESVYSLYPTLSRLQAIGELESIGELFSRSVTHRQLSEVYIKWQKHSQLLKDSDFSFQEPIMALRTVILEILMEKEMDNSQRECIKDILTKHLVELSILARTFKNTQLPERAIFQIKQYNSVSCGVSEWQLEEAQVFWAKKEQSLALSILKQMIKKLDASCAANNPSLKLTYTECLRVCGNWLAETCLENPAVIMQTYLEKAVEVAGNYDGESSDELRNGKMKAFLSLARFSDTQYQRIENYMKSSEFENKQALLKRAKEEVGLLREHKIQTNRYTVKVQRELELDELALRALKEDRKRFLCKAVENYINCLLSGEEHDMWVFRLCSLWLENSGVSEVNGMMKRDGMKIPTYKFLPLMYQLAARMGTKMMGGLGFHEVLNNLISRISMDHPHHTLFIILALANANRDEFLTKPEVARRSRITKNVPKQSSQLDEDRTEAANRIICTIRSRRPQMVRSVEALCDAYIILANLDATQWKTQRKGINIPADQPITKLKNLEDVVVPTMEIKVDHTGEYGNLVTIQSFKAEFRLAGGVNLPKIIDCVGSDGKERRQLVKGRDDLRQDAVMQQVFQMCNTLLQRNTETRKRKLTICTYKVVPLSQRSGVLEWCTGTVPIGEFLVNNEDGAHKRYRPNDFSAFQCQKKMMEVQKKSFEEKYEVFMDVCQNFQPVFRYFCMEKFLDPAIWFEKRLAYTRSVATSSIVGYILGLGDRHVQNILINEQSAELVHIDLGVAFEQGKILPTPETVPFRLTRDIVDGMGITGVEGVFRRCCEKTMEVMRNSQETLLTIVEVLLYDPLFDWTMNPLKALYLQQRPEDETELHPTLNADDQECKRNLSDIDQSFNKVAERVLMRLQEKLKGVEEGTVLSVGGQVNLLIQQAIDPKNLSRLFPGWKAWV

Consider `CC(C)n1c(=O)n(C)c2cnc3cc(F)c(-c4ccc(OCCCN5CCCCC5)nc4)cc3c21` [AZD1390], for which, in data set [1], the “pATM expression and downstream targets pKAP1 and pCHK2, western blot” value is listed as “decrease in pATM expression”. The “effect on [18F]1 cell-associated activity at high molar excess” value in [2] was “increase in cell-associated activity”. For the same compound, the “effect on [18F]1 cell-associated activity at lower inhibitor concentrations” value in [2] (H1299 shATM and shGFP cells) is “initial blocking effect”.
Turning to `CC(C)n1c(=O)n([11CH3])c2cnc3cc(F)c(-c4ccc(OCCCN5CCCCC5)nc4)cc3c21` [[^11C]AZD1390], in data set [3], the “blood–brain barrier penetration by PET” value was “ability to cross the blood–brain barrier”.
Regarding `C[C@@H]1CN(CC(=O)Nc2ccc3c(c2)Cc2cccc(-c4cc(=O)cc(N5CCOCC5)o4)c2S3)C[C@H](C)O1` [KU60019, reference compound], in [1], the “pATM expression and downstream targets pKAP1 and pCHK2, western blot” value is “decrease in pATM expression”. Also, the “blocking of [18F]1 cell-associated activity” value in data set [2] (increasing concentrations of blocking agent, H1299 shATM and shGFP cells, 1 h tracer incubation) is given as “significant blocking”.
`CC(C)n1c(=O)n(C)c2cnc3ccc(-c4ccc(OCCCN5CCCCC5)nc4[18F])cc3c21` [[^18F]1]: in data set [4], the “cell-associated activity (uptake)” value is reported as “increase in cell-associated activity over 1 h followed by a plateau”. Further, the “decrease in cell-associated activity (retention)” value in data set [5] is on record as “approximately 50%”. In addition, the “difference in uptake between wild type and ATM-null mice” value in [6] (C57BL/6 mice) is “Significant differences in uptake between the two mice were only observed in the kidneys and liver”. The clearance route result in [6] (wild type and ATM-null C57BL/6 mice) was “hepatobiliary clearance”. Further, in [7] (setting [13]), the “uptake in H1299 tumour xenografts (shATM)” value was determined as 0.35 ± 0.10 %ID/g, the “uptake in H1299 tumour xenografts (shGFP)” value was determined as 0.35 ± 0.14 %ID/g and the “uptake in H1299 tumour xenografts (wild type)” value was determined as 0.38 ± 0.12 %ID/g. In [7] (after 1 h, all tumour types), the “tumour uptake, range” value was 0.13–0.90 %ID/g. Further, in data set [7] (xenograft-bearing BALB/c nu/nu mice), the clearance route result was “hepatobiliary clearance”.
Turning to `CC(C)n1c(=O)n(C)c2cnc3ccc(-c4ccc(OCCCN5CCCCC5)nc4[N+](=O)[O-])cc3c21` [compound 2], the “pATM expression and downstream targets pKAP1 and pCHK2, western blot” value in data set [1] is on record as “decrease in pATM expression”.
As to `CC(C)n1c(=O)n(C)c2cnc3ccc(-c4ccc(OCCCN5CCCCC5)nc4F)cc3c21` [compound 1], the “pATM expression and downstream targets pKAP1 and pCHK2, western blot” value in data set [1] is “decrease in pATM expression”. Moreover, the “effect on [18F]1 cell-associated activity at high molar excess” value in data set [2] is “increase in cell-associated activity”. Moreover, in data set [2] (H1299 shATM and shGFP cells), the “effect on [18F]1 cell-associated activity at lower inhibitor concentrations” value is recorded as “initial blocking effect”. In addition, in data set [8], the “murine ATM inhibition and reduction of downstream target pKAP1, western blot” value was “murine ATM inhibition”. For the same compound, the IC50 in [9] (read-out: Cellular IC50 by catalytic inhibition: ATM) was < 0.00043 µM; in data set [10], > 30 µM; in data set [11], 5.75 µM; in data set [12] it was > 5.19 µM. The “IC50 value of ATM inhibition” value in data set [9] (reported value) is given as “sub-nM”.
